Structures are written as SMILES.

The assay deals with Human immunodeficiency virus type 1 protease (Human immunodeficiency virus 1, UniProt Q72874). The experiment in a line: Inhibitory activity was determined against HIV type 1 protease.
For `CC(C)C[C@H](NC(=O)[C@H](NCc1ccccc1)[C@H](O)[C@H](Cc1ccccc1)NC(=O)[C@@H](NC(=O)OCc1ccccc1)C(C)C)C(=O)NCc1ccccc1`, the inhibition constant Ki was 11 nM. `CC(C)(C)[C@H](NC(=O)OCc1ccccc1)C(=O)N[C@@H](Cc1ccccc1)[C@@H](O)[C@@H](NCc1ccccc1)C(=O)NC(CO)c1ccccc1` (stereo not given in full) gave a Ki of 107 nM. To `COc1ccc(CN[C@@H](C(=O)N[C@H](C(=O)NCCn2ccnc2)C(C)C)[C@H](O)[C@H](Cc2ccccc2)NC(=O)[C@@H](NC(=O)OCc2ccccc2)C(C)C)cc1` belongs 28.8 nM; to `CC(C)[C@H](NC(=O)OCc1ccccn1)C(=O)N[C@@H](Cc1ccccc1)[C@@H](O)[C@@H](NCc1ccccc1)C(=O)N[C@H](C(=O)NCc1ccccn1)C(C)C`, 26.9 nM; to `COc1ccc(CN[C@@H](C(=O)N[C@H](C(=O)NCc2ccccc2)C(C)C)[C@H](O)[C@H](Cc2ccccc2)NC(=O)[C@@H](NC(=O)N(C)Cc2nc3ccccc3[nH]2)C(C)C)cc1`, 10.2 nM. To `CC(C)[C@H](NC(=O)OCc1ccccc1)C(=O)N[C@@H](Cc1ccccc1)[C@@H](O)[C@@H](NCCc1cc2ccccc2[nH]1)C(=O)N[C@H](C(=O)NCc1ccccc1)C(C)C` belongs 61.7 nM. For the molecule `COC(=O)[C@@H](NC(=O)[C@H](NCc1ccccc1)[C@H](O)[C@H](Cc1ccccc1)NC(=O)[C@@H](NC(=O)OCc1ccccc1)C(C)C)C(C)C`, the Ki is 1100 nM. `COc1ccc(CN[C@@H](C(=O)NCc2ccc(OC)cc2O)[C@H](O)[C@H](Cc2ccccc2)NC(=O)[C@@H](NC(=O)OCc2ccccc2)C(C)C)cc1`: the Ki was 3020 nM. To `CC(C)(C)[C@H](NC(=O)OCc1ccccc1)C(=O)N[C@@H](Cc1ccccc1)[C@@H](O)[C@@H](NCc1ccc(OCCO)cc1)C(=O)N[C@H]1c2ccccc2CC1O` (stereo not given in full) belongs 15.8 nM. To `COc1ccc(C[C@H](NC(=O)OC(C)(C)C)[C@@H](O)[C@@H](NCc2ccc(Cl)cc2)C(=O)N[C@H](C(=O)NCc2nc3ccccc3[nH]2)C(C)C)cc1` belongs 8.91 nM. As to `CC(C)[C@H](NC(=O)[C@H](NCc1ccccc1)[C@H](O)[C@H](Cc1ccccc1)NC(=O)[C@@H](NC(=O)CC1NC(=O)NC1=O)C(C)(C)C)C(=O)NCc1ccccc1` (stereo not given in full), the Ki is 11 nM.

The molecule `CC(C)(C)OC(=O)N[C@@H](Cc1ccccc1)[C@@H](O)[C@@H](NCc1ccc(CNC(=O)CCc2nc3ccccc3[nH]2)cc1)C(=O)N[C@H]1c2ccccc2CC1O` (stereo not given in full) had a Ki of 40.7 nM. To `COc1ccc(CN[C@@H](C(=O)N[C@H](C(=O)NCC2CCCCC2O)C(C)C)[C@H](O)[C@H](Cc2ccccc2)NC(=O)[C@@H](NC(=O)OCc2ccccc2)C(C)C)cc1` (stereo not given in full) belongs 15.8 nM; to `CCOc1ccc(CN[C@@H](C(=O)NCc2ccccc2)[C@H](O)[C@H](Cc2ccccc2)NC(=O)[C@@H](NC(=O)OCc2ccccc2)C(C)(C)C)cc1`, 37.2 nM; to `CC(C)(C)[C@H](NC(=O)OCc1ccccc1)C(=O)N[C@@H](Cc1ccccc1)[C@@H](O)[C@@H](NCc1ccc(OCCO)cc1)C(=O)NCc1ccccc1`, 33.9 nM. The molecule `COc1cccc(CN[C@@H](C(=O)N[C@H](C(=O)NCc2nc3ccccc3[nH]2)C(C)C)[C@H](O)[C@H](Cc2ccccc2)NC(=O)[C@@H](NC(=O)OCc2ccccc2)C(C)C)c1` had a Ki of 9.77 nM. In turn, `COc1ccc(CN[C@@H](C(=O)N[C@H](C(=O)NCc2nc3ccccc3[nH]2)C(C)C)[C@H](O)[C@H](Cc2ccccc2)NC(=O)[C@@H](NC(=O)OC(C)(C)C)C(C)C)cc1` had a Ki of 20.9 nM. As for `COc1ccc(CN[C@@H](C(=O)N[C@H](C(=O)NCc2ccc(OC)cc2O)C(C)C)[C@H](O)[C@H](Cc2ccccc2)NC(=O)[C@@H](NC(=O)OCc2ccccc2)C(C)C)cc1`, the affinity, expressed as Ki, was 14.1 nM. The molecule `COc1ccc(CN[C@@H](C(=O)N[C@H](C(=O)NCc2nc3ccccc3[nH]2)C(C)C)[C@H](O)[C@H](Cc2ccccc2)NC(=O)[C@@H](NC(=O)OCc2nc3cc[nH]cc-3n2)C(C)(C)C)cc1` gave a Ki of 19.1 nM. `CC(C)[C@H](NC(=O)c1ccc2ccccc2n1)C(=O)N[C@@H](Cc1ccccc1)[C@@H](O)[C@@H](NCc1ccccc1)C(=O)N[C@H](C(=O)NCc1ccccn1)C(C)C` showed a Ki of 42.7 nM. This Ki lies about 2.2-fold higher than the previous one. The molecule `CC(C)[C@H](NC(=O)OCc1ccccc1)C(=O)N[C@@H](Cc1ccccc1)[C@@H](O)[C@@H](NCc1ccc(Cl)cc1)C(=O)N[C@H](C(=O)NCc1ccccn1)C(C)C` gave a Ki of 6.46 nM. To `CC(C)[C@H](NC(=O)[C@H](NCc1ccccc1)[C@H](O)[C@H](Cc1ccccc1)NC(=O)[C@@H](NC(=O)OCc1ccccn1)C(C)(C)C)C(=O)NCc1ccccc1` belongs 1.24 nM; to `CC(C)[C@H](NC(=O)[C@H](SCc1ccccc1)[C@H](O)[C@H](Cc1ccccc1)NC(=O)OC(C)(C)C)C(=O)NCc1ccccc1`, 26.9 nM. The molecule `COc1ccc(CN[C@@H](C(=O)NC2c3ccccc3C[C@H]2O)[C@H](O)[C@H](Cc2ccccc2)NC(=O)[C@@H](NC(=O)C(O)Cc2ccccc2)C(C)(C)C)cc1` (stereo not given in full) had a Ki of 14.1 nM. With `COc1ccc(CN[C@@H](C(=O)NCCNCc2nc3ccccc3[nH]2)[C@H](O)[C@H](Cc2ccccc2)NC(=O)[C@@H](NC(=O)OCc2ccccc2)C(C)C)cc1`, the affinity corresponds to a Ki of 1290 nM. To `CC(C)[C@H](NC(=O)OCc1ccccc1)C(=O)N[C@@H](Cc1ccccc1)[C@@H](O)[C@@H](NCc1ccc(Br)cc1)C(=O)N[C@H](C(=O)NCc1nc2ccccc2[nH]1)C(C)C` belongs 15.1 nM; to `CC(C)[C@H](NC(=O)[C@H](NCc1ccccc1)[C@H](O)[C@H](Cc1ccccc1)NC(=O)[C@@H](NC(=O)N(C)c1ccccc1)C(C)(C)C)C(=O)NCc1ccccc1`, 646 nM; to `COc1ccc(CN[C@@H](C(=O)N[C@H](C(=O)NCCn2cnc3ccccc32)C(C)C)[C@H](O)[C@H](Cc2ccccc2)NC(=O)[C@@H](NC(=O)OCc2ccccc2)C(C)C)cc1`, 19.1 nM. To `CCOc1ccc(CN[C@@H](C(=O)N[C@H]2c3ccccc3CC2O)[C@H](O)[C@H](Cc2ccccc2)NC(=O)[C@@H](NC(=O)OCc2ccccc2)C(C)(C)C)cc1` (stereo not given in full) belongs 10 nM; to `CCOC(=O)[C@H](NCc1ccc(Cl)cc1)[C@H](O)[C@H](Cc1ccc(OC)cc1)NC(=O)OC(C)(C)C`, 3720 nM.

In turn, `COc1ccc(CN[C@@H](C(=O)N[C@H](C(=O)NCc2nc3ccccc3[nH]2)C(C)C)[C@H](O)[C@H](Cc2ccccc2)NC(=O)[C@@H](NC(=O)OCc2ccccc2)C(C)C)cc1OC` showed a Ki of 12.6 nM.

Molecule `COc1ccc(CN[C@@H](C(=O)N[C@H](C(=O)NCc2nc3ccccc3[nH]2)C(C)C)[C@H](O)[C@H](Cc2ccccc2)NC(=O)[C@@H](NC(=O)[C@@H](O)Cc2ccccc2)C(C)(C)C)cc1` gave a Ki of 6.03 nM. The molecule `COc1ccc(CN[C@@H](C(=O)NCC(O)c2ccccc2)[C@H](O)[C@H](Cc2ccccc2)NC(=O)[C@@H](NC(=O)OCc2ccccc2)C(C)C)cc1` (stereo not given in full) gave a Ki of 2510 nM.

On to `CC(C)(C)[C@H](NC(=O)OCc1ccccc1)C(=O)N[C@@H](Cc1ccccc1)[C@@H](O)[C@@H](NCc1ccccc1)C(=O)N[C@@H](CO)c1ccccc1`, for which affinity was put at a Ki of 36.3 nM. This Ki is about 69-fold lower than that of the molecule before.

For the molecule `COc1ccc(CN[C@@H](C(=O)N[C@H](C(=O)N(C)Cc2nc3ccccc3[nH]2)C(C)C)[C@H](O)[C@H](Cc2ccccc2)NC(=O)OC(C)(C)C)cc1`, the Ki was 12 nM. As for `COc1ccc(CN[C@@H](C(=O)N[C@H](C(=O)NCc2nc3ccccc3[nH]2)C(C)C)[C@H](O)[C@H](Cc2ccccc2)NC(=O)[C@@H](N)C(C)(C)C)cc1`, the Ki is 7.76 nM. Against the preceding molecule, the Ki is about 1.5-fold lower. To `CC(C)(C)[C@H](NC(=O)OCc1ccccc1)C(=O)N[C@@H](Cc1ccccc1)[C@@H](O)[C@@H](NCc1ccc(OCCN2CCOCC2)cc1)C(=O)N[C@H]1c2ccccc2CC1O` (stereo not given in full) belongs 9.55 nM; to `CC(C)[C@H](NC(=O)[C@H](NCc1ccc(Br)cc1)[C@H](O)[C@H](Cc1ccccc1)NC(=O)[C@@H](NC(=O)c1ccc2ccccc2n1)C(C)(C)C)C(=O)NCc1nc2ccccc2[nH]1`, 5.62 nM. To `CC(C)[C@H](NC(=O)[C@H](NCc1ccccc1)[C@H](O)[C@H](Cc1ccccc1)NC(=O)[C@@H](NC(=O)OC(C)(C)C)C(C)(C)C)C(=O)NCc1ccccc1` belongs 417 nM. In turn, `COc1ccc(CN[C@@H](C(=O)N[C@H](C(=O)NCCN2CCOCC2)C(C)C)[C@H](O)[C@H](Cc2ccccc2)NC(=O)[C@@H](NC(=O)OCc2ccccc2)C(C)C)cc1` showed a Ki of 24 nM. The molecule `CC(C)(C)[C@H](NC(=O)OCc1ccccc1)C(=O)N[C@@H](Cc1ccccc1)[C@@H](O)[C@@H](NCc1ccc(OCCN2CCOCC2)cc1)C(=O)NCc1ccccc1` had a Ki of 69.2 nM. This Ki lies about 2.9-fold higher than the previous one. To `CC(C)(C)OC(=O)N[C@@H](Cc1ccccc1)[C@@H](O)[C@@H](NCc1ccc(OCCN2CCOCC2)cc1)C(=O)N[C@H]1c2ccccc2CC1O` (stereo not given in full) belongs 162 nM; to `COc1ccc(CN[C@@H](C(=O)N[C@H](C(=O)NCc2nc3ccccc3[nH]2)C(C)C)[C@H](O)[C@H](Cc2ccccc2)NC(=O)[C@H](NC(=O)OCc2nc3cc[nH]cc-3n2)C(C)(C)C)cc1`, 447 nM; to `CC(C)(C)[C@H](NC(=O)OCc1ccccc1)C(=O)N[C@@H](Cc1ccccc1)[C@@H](O)[C@@H](NCc1ccc(CNC(=O)OCc2ccccc2)cc1)C(=O)N[C@H]1c2ccccc2CC1O` (stereo not given in full), 10 nM. Turning to `CC(C)(C)[C@H](NC(=O)OCc1ccccc1)C(=O)N[C@@H](Cc1ccccc1)[C@@H](O)[C@@H](NCc1ccc(CNC(=O)CCc2nc3ccccc3[nH]2)cc1)C(=O)N[C@H]1c2ccccc2CC1O` (stereo not given in full), affinity was put at a Ki of 4.07 nM. Consider `COc1ccc(CN[C@@H](C(=O)N[C@H](C(=O)Nc2ccc3c(c2)OCCO3)C(C)C)[C@H](O)[C@H](Cc2ccccc2)NC(=O)[C@@H](NC(=O)OCc2ccccc2)C(C)C)cc1`, for which the affinity, expressed as Ki, was 15.1 nM. This Ki is about 3.7-fold higher than that of the molecule before.

The molecule `CC(C)(C)OC(=O)N[C@@H](Cc1ccccc1)[C@@H](O)[C@@H](NCc1ccc(CNC(=O)OCc2ccccc2)cc1)C(=O)N[C@H]1c2ccccc2CC1O` (stereo not given in full) had a Ki of 19.1 nM. To `CC(C)[C@H](NC(=O)[C@H](NCc1ccccc1)[C@H](O)[C@H](Cc1ccccc1)NC(=O)[C@H](O)C(C)C)C(=O)NCc1ccccc1` belongs 794 nM. To `CC(C)(C)OC(=O)N[C@@H](Cc1ccccc1)[C@@H](O)[C@@H](NCc1ccc(OCCO)cc1)C(=O)NCc1ccccc1` belongs 1200 nM; to `CC(C)(C)OC(=O)N[C@@H](Cc1ccccc1)[C@@H](O)[C@@H](NCc1ccccc1)C(=O)NCc1ccccc1`, 2510 nM.

(Values after ChEMBL document CHEMBL1128211, “3D-quantitative structure-activity relationships of human immunodeficiency virus type-1 proteinase inhibitors: comparative molecular field analysis of 2-heterosubstituted statine derivatives-implications for the design of novel inhibitors” (J Med Chem, 1995).)
